Measurements: patent US20030236439A1, “Non-steroidal analogs of 2-methoxyestradiol” (priority 2002, published 2003)

Experiments:
MCF-7 cell = settings: in vitro, over a wide range of concentrations; cited from earlier work
[1] = tested on: chick embryo chorioallantoic membrane; assay: chick embryo chorioallantoic membrane (CAM) assay; assay type: in vivo; settings: 100 μg methylcellulose disk, after 48 hours
Description: Anti-proliferative activity can be evaluated in situ by testing the ability of the new non-steroidal estradiol analogs to inhibit the proliferation of new blood vessel cells (angiogenesis). A suitable assay is the chick embryo chorioallantoic membrane (CAM) assay described by Crum et al. Science 230:1375 (1985). See also, U.S. Pat. No. 5,001,116, hereby incorporated by reference, which describes the CAM assay. Briefly, fertilized chick embryos are removed from their shell on day 3 or 4, and a methylcellulose disc containing the drug is implanted on the chorioallantoic membrane. The embryos are examined 48 hours later and, if a clear avascular zone appears around the methylcellulose disc, the diameter of that zone is measured.

[2] = tested on: vascular endothelial cell proliferation; settings: vascular endothelial vs tumor cell proliferation; cited from earlier work

SMILES	estrogenic activity (MCF-7 cell)	effect on cell mitosis and growth of new blood vessels (avascular zone) [1]	half-maximal inhibition of endothelial cell proliferation at lower concentration than tumor cell proliferation [2] [logs]
COc1cc2c(cc1O)CC[C@@H]1[C@@H]2CC[C@]2(C)[C@@H](O)CC[C@@H]12 [2-methoxyestradiol]	not estrogenic	inhibit cell mitosis and the growth of new blood vessels	
CO[C@@H]1[C@H](OC(=O)NC(=O)CCl)CC[C@]2(CO2)[C@H]1[C@@]1(C)O[C@@H]1CC=C(C)C [AGM-1470]			4
